Experimental data: PMC7073229, “Novel Quinoline Compounds Active in Cancer Cells through Coupled DNA Methyltransferase Inhibition and Degradation” (Cancers, 2020)
Read-outs that look alike come from different tables or passages of the source.

Legend:
[1] = test system: U937 AML cells; conditions: MTT, 48 h, read-out: Antiproliferative Activity (IC50 ± SD) U937, cited from earlier work
[2] = test system: KRAS21R G-quadruplex DNA; assay: FRET melting assay, G-quadruplex DNA; format: binding
Description: (§1) Experimental procedure for Fluorescence Resonance Energy Transfer (FRET) melting assay Oligonucleotides labeled at 5’ with FAM (6-carboxyfluorescein) as donor fluorophore and TAMRA (6 - carboxytetramethylrhodamine) at 3’ as the acceptor fluorophore were purchased from STAB VIDA (Portugal). Each oligonucleotide was initial ly diluted to 100 µM in water (Molecular Biology Reagent, Sigma). Stock solutions of 20 µM and subsequent dilutions were made with FRET buffer (60 mM KCl, potassium cacodylate, pH 7.4). Tagged oligonucleotides at 0.4 µM were annealed by heating at 90 -95 °C for 10 min, followed by slow cooling to room temperature. St ock solutions of compounds (1 mM) were prepared in 10% DMSO. Subsequent dilutions were performed using FRET buffer. Annealed DNA (50 µL) and test compound solutions (50 µL) were distributed across 96-well RT-PCR plates (PCR-96-FLT-C, Axygen, Inc). Fluorescence readings (performed in a 7300 RT -PCR equipment from Applied Biosystems) were taken at intervals of 0.5 °C in the range 31 –95 °C, with the temperature being maintained for 30 seconds prior to each reading. Experiments were performed in triplicate. Fina l analysis of the data was carried out with GraphPad Prism v.5.0 (GraphPad Software Inc., La Jolla, CA, USA).
(§2) The advanced curve-fitting function in GraphPad Prism (nonlinear regression fit) was used for calculation of ΔTm values. Only results with fitting r2 values > 0.75 (std error < 0.25) were considered.
(§3) Table S2. Synthetic oligonucleotides used in FRET experiments.

[3] = test system: F21T G-quadruplex DNA; assay: FRET melting assay, G-quadruplex DNA; format: binding
Description: as §1, §2, §3

[4] = test system: HL60 APL cells; conditions: MTT, 48 h, read-out: Antiproliferative Activity (IC50 ± SD) HL60, cited from earlier work
[5] = test system: HCT116 human colorectal carcinoma; assay: Antiproliferative activity, MTT; format: cell-based; conditions: HCT-116, 48 h treatment, read-out: Antiproliferative Activity (IC50 ± SD) HCT116
Description: (§4) U937 histiocytic lymphoma, HL60 acute promyelocytic leukemia, H1299 lung adenocarcinoma, MCF7 breast carcinoma, HT1080 fibrosarcoma, M14 melanoma, HeLa epithelial cervix carcinoma and peripheral blood B lymphocyte AHH1 human cell lines were obtained from the Deutsche Sammlung für Mikroorganismen and Zellkulturen (DSZM, Braunschweig, Germany) and were maintained in RPMI 1640 medium contained 10% fetal bovine serum (FBS), 2 mM L-glutamine, and antibiotics in a humidified atmosphere with 5% CO2 at 37 °C. HCT116 (ATCC, VA, USA) cells were propagated in Dulbecco’s modified Eagle medium (DMEM) (Euroclone, Milan, Italy) with 10% fetal bovine serum (FBS; Euroclone, Milan, Italy), 2 mM L-glutamine (Euroclone, Milan, Italy), and antibiotics (100 U/mL penicillin, 100 µg/mL streptomycin) (Euroclone, Milan, Italy). The experiments were performed with early (3–20) cell passages. Cell lines were treated with compounds at the indicated concentrations in the exponential growth phase.
(§5) Then, increasing concentrations of different compounds (ranging from 0.01 to 100 μM) were added, and cell proliferation was evaluated by a MTT assay after 48 h. Cells exposed to DMSO were used as control. The effect of compounds was evaluated using the CellTiter-Glo luminescent cell viability assay (Promega, Madison, WI, USA) according to the manufacturer’s instructions. For HCT116, 5 × 10^4 cells/well were plated in 24-well plate and treated, in duplicate, with compounds at several concentrations for 24 and 48 h of induction. After treatments, MTT solution was added for 3 h at 0.5 mg/mL, the obtained crystals were dissolved in DMSO (Sigma-Aldrich, Milan, Italy), and the absorbance was read at a wavelength of 570 nm with reader TECAN M-200. All the experiments were performed in triplicate and repeated at least three times.
(§6) IC50 values of compounds against cellular viability were determined by using nonlinear regression fitting curves with GraphPad Prism 8. The t-test used for statistical analyses was performed with GraphPad Prism 8. All the tests were one-tailed and a p-value < 0.05 was considered statistically significant.

[6] = test system: H1299 human non-small cell lung carcinoma; assay: Antiproliferative activity, MTT; format: cell-based; conditions: 48 h treatment, read-out: Antiproliferative Activity (IC50 ± SD) H1299
Description: as §4, §5, §6

[7] = test system: HT1080 human fibrosarcoma; assay: Antiproliferative activity, MTT; format: cell-based; conditions: HT-1080, 48 h treatment, read-out: Antiproliferative Activity (IC50 ± SD) HT1080
Description: as §4, §5, §6

[8] = test system: HeLa epithelial cervix carcinoma; assay: Antiproliferative activity, MTT; format: cell-based; conditions: Homo sapiens, 48 h treatment, read-out: Antiproliferative Activity (IC50 ± SD) HeLa
Description: as §4, §5, §6

[9] = test system: M14 human melanoma; assay: Antiproliferative activity, MTT; format: cell-based; conditions: 48 h treatment, read-out: Antiproliferative Activity (IC50 ± SD) M14
Description: as §4, §5, §6

[10] = test system: methylated UCHL1 promoter (pUCHL1) in HCT116 cells; assay: UCHL1 promoter demethylation assay (EGFP induction, FACS); format: cell-based, human; conditions: HCT116, 0.5 µM, five days
Description: The assay was performed as described in [29]. Briefly, human colon cancer HCT116 (ATCC, VA, USA) cells were grown in Dulbecco’s Modified Eagle Medium (DMEM; Euroclone, Milan, Italy) supplemented with 10% fetal bovine serum (FBS; Euroclone, Milan, Italy), 2 mM L-glutamine (Euroclone), and antibiotics (100 U/mL penicillin, 100 µg/mL streptomycin) (Euroclone). The pUMLIEP vector (composed by MetLuc-IRES-EGFP construct upon the control of the ubiquitin carboxyl-terminal hydrolase L1 (UCHL1)) was linearized and methylated by with ClaI and SssI-methylase enzymes (New England Biolabs, Milan, Italy). After, methylated pUMLIEP was transfected into HCT116 cells following the protocol described in [30]. […] On day 5, cells were observed under by a fluorescent microscope (Cytation 5 Cell Imaging Multi-Mode Reader (BioTeK Milan, Italy) and BD Accuri flow cytometers. Nuclei were counterstained with DAPI (10 µg/mL, Invitrogen, Tournai, Belgium).

[11] = biological target: T1, human DNMT1 (hDNMT1) (Homo sapiens, UniProt P26358); assay: DNMT1 assay ([methyl-3H]SAM, Flashplate); format: biochemical; conditions: mean of at least two independent experiments; read-out: Enzyme Inhibition (EC50 ± SD) hDNMT1
T1 construct: His; made in house
Description: His-DNMT1 (182 kDa, human) was cloned, expressed, and purified as described by Lee et al.. The DNMT1 assay was performed according to Gros et al.. […] The reaction was incubated 2 h at 37 °C, then 8 µL of the solution are transferred into a streptavidin 96-well scintillant coated Flashplate containing 190 µL of 20 mM SAH in 50 mM Tris–HCl (pH 7.4). The Flashplate is agitated for 1 h at room temperature and washed. The plate is read with TopCount (PerkinElmer). In this assay, the negative and positive controls were defined as wells without enzyme and wells with only DMSO, respectively.

[12] = biological target: T2, C-terminal catalytic domain of human DNMT3A (hDNMT3A) (Homo sapiens, UniProt Q9Y6K1); assay: DNMT3A restriction-based fluorescence assay; format: biochemical; conditions: mean of at least two independent experiments; read-out: Enzyme Inhibition (EC50 ± SD) hDNMT3A
T2 construct: the C-terminal catalytic domain of human DNMT3A (hDNMT3A)
Description: DNMT3A enzyme inhibition was adapted from the restriction-based fluorescence assay protocol described in Ceccaldi et al.. Briefly, a biotin-labelled oligonucleotide at the 5’ end is hybridized to his complementary strand labelled at the 3’ end with 6-carboxyfluorescein. The DNA duplex containing only one single CpG site overlapping with a restriction site of a methylation sensitive restriction enzyme is transferred in the wells coated with avidin. The methylation reaction is performed by adding human C-terminal DNMT3A at the final concentration of 4 ng/µL in a total volume of 50 µL in the presence of the inhibitors at various concentrations and the co-substrate SAM at the final concentration of 20 µM. The plate was incubated for 1 h at 37 °C, washed, and added with the methylation sensitive restriction enzyme HpyCH4IV, incubated for 1 h further at 37 °C, washed and the fluorescence measured with a PerkinElmer Envision Multilabel Plate Reader. The data are expressed as percentage of inhibition vs. log concentration (M). Data are normalized referring to the “restriction control” (wells coated with labelled duplex not treated nor exposed to DNMT3A, but only cleaved by HpyCH4IV) as the maximum of inhibition (100%) and to the “DMSO control” (wells coated with labelled duplex but treated just with 0.1% DMSO exposed to DNMT3A and then to HpyCH4IV) as the minimum of inhibition (0%; total methylation).

[13] = test system: HL60 APL cells; assay: Antiproliferative activity, MTT; format: cell-based; conditions: Homo sapiens, HL-60, 48 h treatment, read-out: Antiproliferative Activity (IC50 ± SD) HL60
Description: as §4, §5, §6

[14] = test system: U937 AML cells; assay: Antiproliferative activity, MTT; format: cell-based; conditions: Homo sapiens, U-937, 48 h treatment, read-out: Antiproliferative Activity (IC50 ± SD) U937
Description: as §4, §5, §6

T2 sequence (Q9Y6K1 634-912 limits assumed): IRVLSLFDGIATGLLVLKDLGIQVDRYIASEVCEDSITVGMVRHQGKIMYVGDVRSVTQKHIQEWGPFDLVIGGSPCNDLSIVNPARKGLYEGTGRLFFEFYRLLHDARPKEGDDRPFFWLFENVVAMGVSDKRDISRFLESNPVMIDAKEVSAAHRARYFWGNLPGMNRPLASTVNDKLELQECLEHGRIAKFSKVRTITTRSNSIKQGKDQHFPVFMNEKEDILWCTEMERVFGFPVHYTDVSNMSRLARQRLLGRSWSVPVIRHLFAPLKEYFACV
T1 sequence (P26358 whole entry): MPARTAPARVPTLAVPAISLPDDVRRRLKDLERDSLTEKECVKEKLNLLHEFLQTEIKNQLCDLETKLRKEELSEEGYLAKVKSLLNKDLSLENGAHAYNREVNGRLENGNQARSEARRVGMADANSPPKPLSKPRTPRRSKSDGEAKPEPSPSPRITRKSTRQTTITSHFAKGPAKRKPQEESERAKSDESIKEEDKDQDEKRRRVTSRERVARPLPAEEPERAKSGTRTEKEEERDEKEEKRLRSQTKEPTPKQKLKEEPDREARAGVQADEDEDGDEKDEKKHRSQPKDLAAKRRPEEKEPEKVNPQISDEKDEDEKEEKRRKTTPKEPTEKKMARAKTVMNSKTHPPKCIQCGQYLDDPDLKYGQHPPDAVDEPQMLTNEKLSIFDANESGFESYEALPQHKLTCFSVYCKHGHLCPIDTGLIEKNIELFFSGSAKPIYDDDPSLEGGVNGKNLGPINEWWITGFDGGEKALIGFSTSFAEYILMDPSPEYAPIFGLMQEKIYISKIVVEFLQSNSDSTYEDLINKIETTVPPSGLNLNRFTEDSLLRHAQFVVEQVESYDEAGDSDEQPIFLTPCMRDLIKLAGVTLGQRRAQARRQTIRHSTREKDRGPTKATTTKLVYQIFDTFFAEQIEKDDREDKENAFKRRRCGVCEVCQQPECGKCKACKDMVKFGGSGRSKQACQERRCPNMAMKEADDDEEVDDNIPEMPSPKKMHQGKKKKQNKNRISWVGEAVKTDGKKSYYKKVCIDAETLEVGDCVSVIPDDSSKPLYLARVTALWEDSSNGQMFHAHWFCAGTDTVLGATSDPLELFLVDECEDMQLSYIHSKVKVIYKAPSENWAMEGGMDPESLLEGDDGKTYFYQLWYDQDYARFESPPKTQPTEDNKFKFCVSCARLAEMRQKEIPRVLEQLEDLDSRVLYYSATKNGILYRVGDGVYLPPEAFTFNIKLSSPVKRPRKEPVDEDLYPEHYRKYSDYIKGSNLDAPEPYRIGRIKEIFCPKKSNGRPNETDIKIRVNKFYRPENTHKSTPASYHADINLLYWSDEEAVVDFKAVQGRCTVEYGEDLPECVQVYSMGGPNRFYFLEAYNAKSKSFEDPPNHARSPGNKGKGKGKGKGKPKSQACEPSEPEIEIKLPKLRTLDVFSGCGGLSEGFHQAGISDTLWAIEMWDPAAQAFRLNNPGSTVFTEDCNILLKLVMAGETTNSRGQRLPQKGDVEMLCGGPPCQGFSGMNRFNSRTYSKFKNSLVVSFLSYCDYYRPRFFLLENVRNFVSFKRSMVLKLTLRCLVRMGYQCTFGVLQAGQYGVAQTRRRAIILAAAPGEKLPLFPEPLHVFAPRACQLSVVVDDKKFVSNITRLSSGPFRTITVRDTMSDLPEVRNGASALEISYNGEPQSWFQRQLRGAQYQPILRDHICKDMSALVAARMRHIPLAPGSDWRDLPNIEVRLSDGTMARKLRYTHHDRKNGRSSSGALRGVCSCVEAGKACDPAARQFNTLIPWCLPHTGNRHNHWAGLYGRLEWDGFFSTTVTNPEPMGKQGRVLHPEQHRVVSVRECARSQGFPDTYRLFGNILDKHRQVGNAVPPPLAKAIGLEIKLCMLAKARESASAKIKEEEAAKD

SMILES | IC50 ([1]; reference compounds) [µM] | KRAS ∆Tm ([2]; 5 µM) | KRAS ∆Tm ([2]; 10 µM) | F21T ∆Tm ([3]; 5 µM) | F21T ∆Tm ([3]; 10 µM) | IC50 ([4]; reference compounds) [µM] | IC50 [5] [µM] | IC50 [6] [µM] | IC50 ([6]; Homo sapiens, NCI-H1299, 48 h) [µM] | IC50 [7] [µM] | IC50 [8] [µM] | IC50 [9] [µM] | pUCHL1 demethylation, EGFP-positive cells (FACS R1) [10] [%] | IC50 ([1]; reference compound) [µM] | IC50 ([4]; reference compound) [µM] | EC50 [11] [µM] | EC50 [12] [µM] | IC50 [13] [µM] | IC50 [14] [µM]
O=C(Nc1ccc(Nc2ccnc3ccccc23)cc1)c1ccc(Nc2ccnc3ccccc23)cc1 [Compound 2, reference compound] | 6.6 ± 0.9 | 1.0 ºC | 9.6 ºC | 0.6 ºC | 6.2 ºC | 65 ± 8.1 | 13.3 ± 2.1 | 11.4 ± 1.8 | 11 | 17 ± 2.1 | 52 ± 5.7 | 80 ± 9.1 |  |  |  |  |  |  | 
Cc1cc(Nc2ccc(NC(=O)c3ccc(Nc4ccnc5ccccc45)cc3)cc2)nc(N)n1 [SGI-1027, reference compound] | 0.7 ± 0.08 | 6.7 ºC | 8.7 ºC | 1.9 ºC | 7.2 ºC | 0.7 ± 0.16 |  |  |  |  |  |  | 32.9 |  |  |  |  |  | 
Cc1cc(Nc2ccc(NC(=O)c3ccc(Nc4cc(C)nc(N)n4)cc3)cc2)nc(N)n1 [Compound 3] | 60 ± 8.2 |  |  |  |  | 119 ± 12.9 |  |  |  |  |  |  |  |  |  |  |  |  | 
O=C(Nc1ccc(NC(=O)c2ccc(Nc3ccnc4ccccc34)cc2)cc1)OCc1ccccc1 [Compound 4, reference compound] |  | 1 ºC | 10.4 ºC | 2.7 ºC | 6.9 ºC |  | 8.6 ± 1 |  | 5.9 ± 0.8 | 1.7 ± 0.2 | 3.2 ± 0.5 | 2.9 ± 0.4 |  | 2.3 ± 0.4 | 8.3 ± 1 |  |  |  | 
Cc1cc(Nc2cccc(CNC(=O)c3cccc(Nc4ccnc5ccccc45)c3)c2)nc(N)n1 [Compound 1c] |  |  |  |  |  |  |  |  |  |  |  |  |  |  |  | 35 ± 7 | 31 ± 6 | 36 ± 4 | 25.8 ± 3.2
